EC50 and CC50 data for 14 molecules are collected here from US12208110B2 (priority 2020, dated 2025).

What all share (assay type): cell-based
One data set relates to SARS-CoV-2. The experiment in a line: microbe, parasite or virus in culture. Particulars: Severe acute respiratory syndrome coronavirus 2, 48 h.
Data set [1] relates to RSV-Fluc (Recombinant Respiratory Syncytial virus strain A2 containing the firefly luciferase reporter). The data set is described as follows: microbe, parasite or virus in culture. The settings on record: human respiratory syncytial virus, NHBE, 72 h, read-out: RSV-Fluc EC50 (nM, NHBE).
Data set [2] in a line: MT4 cytotoxicity analysis (CellTiter-Glo). The settings on record: human, MT4 CC50 (nM). The method, then:
Example 79: MT4 Cytotoxicity Analysis
3-fold serially diluted compound in DMSO, ranging from 2.5 uM to 10 mM, were added by acoustic transfer (Echo) in quadruplicate into black 384-well plates at 200 nl/well. After compound addition, 40 ul MT-4 cells at 80,000/ml were added to each well using a MicroFlo liquid dispenser (BioTek, Winooski, VT) and the cells were cultured for five days at 37° C. Following the incubation, cell viability was determined by adding 35 μL of CellTiter-Glo viability reagent and mixed thoroughly using ViaFlo 384 well workstation. The mixture was incubated for at least 10 minutes at 25° C., and the luminescence signal was quantified on an EnVision plate reader.

By EC50 is commonly meant the concentration giving half of the maximal effect. In general, CC50 refers to the concentration giving 50% cytotoxicity.

For `CCCCCCCCCCCCCCCCCCOC[C@H](COP(=O)(O)OC[C@H]1O[C@@](C#N)(c2ccc3c(N)ncnn23)[C@H](O)[C@@H]1O)N(Cc1ccc(F)c(Cl)c1)C(C)=O` [Example 10, ((2R,3S,4R,5R)-5-(4-aminopyrrolo[2,1-f][1,2,4]triazin-7-yl)-5-cyano-3,4-dihydroxytetrahydrofuran-2-yl)methyl ((R)-2-(N-(3-chloro-4-fluorobenzyl)acetamido)-3-(octadecyloxy)propyl) hydrogen phosphate], the figures for the EC50 (with SARS-CoV-2; in data set [1]) were 3600 nM and 55 nM, respectively.
Turning to `CCCCCCCCCCCCCCCCCCOC[C@H](COP(=O)(O)OC[C@H]1O[C@@](C#N)(c2ccc3c(N)ncnn23)[C@H](O)[C@@H]1O)N1Cc2ccccc2C1=O` [Example 11, ((2R,3S,4R,5R)-5-(4-aminopyrrolo[2,1-f][1,2,4]triazin-7-yl)-5-cyano-3,4-dihydroxytetrahydrofuran-2-yl)methyl ((R)-3-(octadecyloxy)-2-(1-oxoisoindolin-2-yl)propyl) hydrogen phosphate], the EC50 in the data set on SARS-CoV-2 worked out at 3800 nM; in data set [1], 47 nM.
For `CCCCCCCCCCCCCCCCSCCCOP(=O)(O)OC[C@H]1O[C@@](C#N)(c2ccc3c(N)ncnn23)[C@H](O)[C@@H]1O` [Example 19, ((2R,3S,4R,5R)-5-(4-Aminopyrrolo[2,1-f][1,2,4]triazin-7-yl)-5-cyano-3,4-dihydroxytetrahydrofuran-2-yl)methyl (3-(hexadecylthio)propyl) hydrogen phosphate], in that order: 3400 nM and 210 nM.
Turning to `CCCCCCCCCCCCCCCCOCCOP(=O)(O)OC[C@H]1O[C@@](C#N)(c2ccc3c(N)ncnn23)[C@H](O)[C@@H]1O` [Example 20, ((2R,3S,4R,5R)-5-(4-Aminopyrrolo[2,1-f][1,2,4]triazin-7-yl)-5-cyano-3,4-dihydroxytetrahydrofuran-2-yl)methyl (2-(hexadecyloxy)ethyl) hydrogen phosphate], the figures for the EC50 (in the data set on SARS-CoV-2; in data set [1]) were 3800 nM and 200 nM, respectively.
With `CCCCCCCCCCCCCCCCCCOC[C@H](COCc1cc(F)cc(S(C)(=O)=O)c1)OP(=O)(O)OC[C@H]1O[C@@](C#N)(c2ccc3c(N)ncnn23)[C@H](O)[C@@H]1O` [Example 33, ((2R,3S,4R,5R)-5-(4-aminopyrrolo[2,1-f][1,2,4]triazin-7-yl)-5-cyano-3,4-dihydroxytetrahydrofuran-2-yl)methyl ((R)-1-((3-fluoro-5-(methylsulfonyl)benzyl)oxy)-3-(octadecyloxy)propan-2-yl) hydrogen phosphate], in data set [1], the EC50 is 120 nM.
Still for that read-out and setting: to `CCCCCCCCCCCCCCCCCCOC[C@H](Cc1ccccc1)OP(=O)(O)OC[C@H]1O[C@@](C#N)(c2ccc3c(N)ncnn23)[C@H](O)[C@@H]1O` [Example 40, ((2R,3S,4R,5R)-5-(4-aminopyrrolo[2,1-f][1,2,4]triazin-7-yl)-5-cyano-3,4-dihydroxytetrahydrofuran-2-yl)methyl ((S)-1-(octadecyloxy)-3-phenylpropan-2-yl) hydrogen phosphate] belongs 380 nM.
In the case of `CCCCCCCCCCCCCCCCCCOC[C@H](COP(=O)(O)OC[C@H]1O[C@@](C#N)(c2ccc3c(N)ncnn23)[C@H](O)[C@@H]1O)OCc1cc(F)cc(C(=O)O)c1` [Example 44, 3-((((2R)-1-(((((2R,3S,4R,5R)-5-(4-aminopyrrolo[2,1-f][1,2,4]triazin-7-yl)-5-cyano-3,4-dihydroxytetrahydrofuran-2-yl)methoxy)(hydroxy)phosphoryl)oxy)-3-(octadecyloxy)propan-2-yl)oxy)methyl)-5-fluorobenzoic acid], in data set [1], the EC50 came to 120 nM. For the same molecule, half-maximal cytotoxicity in data set [2] (CC50 at 5 days) was put at 25000 nM.
For `CCCCCCCCCCCCCCCCCCOC[C@H](COP(=O)(O)OC[C@H]1O[C@@](C#N)(c2ccc3c(N)ncnn23)[C@H](O)[C@@H]1O)Oc1ccc(C#N)c(OC)c1F` [Example 48, ((2R,3S,4R,5R)-5-(4-aminopyrrolo[2,1-f][1,2,4]triazin-7-yl)-5-cyano-3,4-dihydroxytetrahydrofuran-2-yl)methyl ((R)-2-(4-cyano-2-fluoro-3-methoxyphenoxy)-3-(octadecyloxy)propyl) hydrogen phosphate], in that order: 17 nM and 160 nM.
For `CCCCCCCCCCCCCCCCCCOC[C@H](COP(=O)(O)OC[C@H]1O[C@@](C#N)(c2ccc3c(N)ncnn23)[C@H](O)[C@@H]1O)Oc1cc(C)c(C#N)cc1F` [Example 49, ((2R,3S,4R,5R)-5-(4-aminopyrrolo[2,1-f][1,2,4]triazin-7-yl)-5-cyano-3,4-dihydroxytetrahydrofuran-2-yl)methyl ((R)-2-(4-cyano-2-fluoro-5-methylphenoxy)-3-(octadecyloxy)propyl) hydrogen phosphate], in that order: 23 nM and 1100 nM.
On to `CCCCCCCCCCCCCCCCCCOC[C@H](COP(=O)(O)OC[C@H]1O[C@@](C#N)(c2ccc3c(N)ncnn23)[C@H](O)[C@@H]1O)OCc1cc(F)c(Cl)c(C#N)c1` [Example 50, ((2R,3S,4R,5R)-5-(4-aminopyrrolo[2,1-f][1,2,4]triazin-7-yl)-5-cyano-3,4-dihydroxytetrahydrofuran-2-yl)methyl ((R)-2-((4-chloro-3-cyano-5-fluorobenzyl)oxy)-3-(octadecyloxy)propyl) hydrogen phosphate], for which the EC50 in data set [1] came out at 24 nM. The same molecule returned a CC50 at 5 days in data set [2] of 640 nM.
With `CCCCCCCCCCCCCCCCCCOC[C@H](COP(=O)(O)OC[C@H]1O[C@@](C#N)(c2ccc3c(N)ncnn23)[C@H](O)[C@@H]1O)OCc1cc(F)c(CCC)c(C#N)c1` [Example 51, ((2R,3S,4R,5R)-5-(4-aminopyrrolo[2,1-f][1,2,4]triazin-7-yl)-5-cyano-3,4-dihydroxytetrahydrofuran-2-yl)methyl ((R)-2-((3-cyano-5-fluoro-4-propylbenzyl)oxy)-3-(octadecyloxy)propyl) hydrogen phosphate], the EC50 in data set [1] was determined as 100 nM. In addition, in data set [2], the CC50 at 5 days worked out at 6700 nM.
For `CCCCCCCCCCCCCCCCCCOC[C@H](COP(=O)(O)OC[C@H]1O[C@@](C#N)(c2ccc3c(N)ncnn23)[C@H](O)[C@@H]1O)Oc1cc(OC)c(C#N)cc1F` [Example 52, ((2R,3S,4R,5R)-5-(4-aminopyrrolo[2,1-f][1,2,4]triazin-7-yl)-5-cyano-3,4-dihydroxytetrahydrofuran-2-yl)methyl ((R)-2-(4-cyano-2-fluoro-5-methoxyphenoxy)-3-(octadecyloxy)propyl) hydrogen phosphate], in that order: 17 nM and 370 nM.
On the same counts, the results for `CCCCCCCCCCCCCCCCCCOC[C@H](COP(=O)(O)OC[C@H]1O[C@@](C#N)(c2ccc3c(N)ncnn23)[C@H](O)[C@@H]1O)OCc1cc(F)c(C)c(C#N)c1` [Example 53, ((2R,3S,4R,5R)-5-(4-aminopyrrolo[2,1-f][1,2,4]triazin-7-yl)-5-cyano-3,4-dihydroxytetrahydrofuran-2-yl)methyl ((R)-2-((3-cyano-5-fluoro-4-methylbenzyl)oxy)-3-(octadecyloxy)propyl) hydrogen phosphate] are 25 nM and 430 nM.
`CCCCCCCCCCCCCCCCOCCOP(=O)(O)OC[C@H]1O[C@@](C#N)(c2ccc3c(N)ncnn23)[C@H](O)[C@@H]1O` [Example 66, [(2R,3S,4R,5R)-5-(4-Aminopyrrolo[2,1-f][1,2,4]triazin-7-yl)-5-cyano-3,4-dihydroxy-tetrahydrofuran-2-yl]methyl 2-hexadecoxyethyl hydrogen phosphate]: in data set [2], it took 29000 nM to reach half-maximal cytotoxicity (CC50 at 5 days).
